Reference: patent US9796711B2, “Substituted pyrazolo[3,4-b]pyridin-6-carboxylic acids and method of use” (AbbVie S.àr.l., priority 2015, dated 2017)

Biological target: T1, CFTR ΔF508 (Homo sapiens, UniProt P13569, DEL508-508)
T1 construct: bronchial epithelial cells isolated from CF patients homozygous for the CFTR ΔF508 mutation; McGill University; Asterand; University of North Carolina hAEC-CF; host or cells: primary human bronchial epithelial cells from CF patients homozygous for ΔF508
Test: Chronic TECC assay on primary bronchial epithelial cells (corrector, co-corrector and potentiator)
Assay type: cell-based
Details: chronic TECC, AUC = full area under the curve upon forskolin stimulation, with co-corrector and potentiator, 24 hours; for EC50: read-out: EC50 (nM) (AUC)
Experimental: Primary Bronchial Epithelial Cells Protocol
The TECC (Tranepithelial Clamp Circuit, EP-design) assay measures the functionality of the cystic fibrosis Transmembrane Conductance regulator (CFTR) by measuring the short circuit current (Isc) generated over the basolateral and apical membrane of lung epithelial cells. In TECC the transepithelial potential PD and transepithelial resistance (Rt)) are measured in an open circuit and transformed to Ieq using Ohm's law. 24 Wells can be measured simultaneously allowing a higher throughput compared to Ussing chambers.
For this purpose, bronchial epithelial cells isolated from CF patients homozygous for the CFTR ΔF508 mutation (hAEC-CF, Epithelix, Geneva, Switzerland; McGill University, Montreal, Qc; Asterand, Detroit, Mich.; University of North Carolina, Chapel Hill, N.C.) are plated on type IV collagen-coated Transwell® supports (Costar). Human airway epithelia are generated by provision of an air-liquid interface for 21 days to form well-differentiated polarized cultures that resemble in vivo pseudo-stratified ciliated epithelium (Fulcher, M. L., Gabriel, S., Burns, K. A., Yankaskas, J. R., Randell, S. H., 2005. Well-differentiated human airway epithelial cell cultures. Methods Mol. Med. 107, 183-206). The differentiated cells are treated with test corrector compound(s) (corrector alone or in combination with co-corrector, 4-[(2R,4R)-4-({[1-(2,2-difluoro-1,3-benzodioxol-5-yl)cyclopropyl]carbonyl}amino)-7-methoxy-3,4-dihydro-2H-chromen-2-yl]benzoic acid (G924806/A-1618261) (“acute”) or test corrector compounds, co-corrector and potentiator, N-(3-carbamoyl-5,5,7,7-tetramethyl-4,7-dihydro-5H-thieno[2,3-c]pyran-2-yl)-1H-pyrazole-5-carboxamide GLPG1837, (“chronic”) for 24 hours basolaterally to allow sufficient expression of properly folded CFTR protein on the membrane. All compound plates contained negative controls (DMSO) and positive controls (0.15 μM, 4-[(2R,4R)-4-({[1-(2,2-difluoro-1,3-benzodioxol-5-yl)cyclopropyl]carbonyl}amino)-7-(difluoromethoxy)-3,4-dihydro-2H-chromen-2-yl]benzoic acid).
For electrophysiological recording of the “chronic” experiments, the human airway epithelia are mounted in the TECC heating plate for electrophysiological measurement and kept at 37° C. The epithelia are bathed in a NaCl-Ringer solution (120 mM NaCl, 25 mM NaHCO3, 1.2 mM CaCl2, 1.2 mM MgCl2, 0.8 mM KH2PO4, 0.8 mM K2HPO4, pH 7.4, 5 mM glucose) on both the basolateral and apical sides. Test compounds (corrector, co-corrector, 4-[(2R,4R)-4-({[1-(2,2-difluoro-1,3-benzodioxol-5-yl)cyclopropyl]carbonyl}amino)-7-(difluoromethoxy)-3,4-dihydro-2H-chromen-2-yl]benzoic acid, and potentiator, N-(3-carbamoyl-5,5,7,7-tetramethyl-4,7-dihydro-5H-thieno[2,3-c]pyran-2-yl)-1H-pyrazole-5-carboxamide), are re-added to the recording solution prior to measurement. Apical amiloride is used to inhibit the endogenous ENaC currents while forskolin is applied on both apical and basolateral side to stimulate CFTR. Measurements are done during a 20 minute timeframe with recordings every 2 minutes. The increase in Ieq is used as a measure for the increased CFTR activity, EC50 values can be generated by measuring impact of different concentrations of compound on Ieq on primary cells, for this purpose each transwell is treated with a different compound concentration. Inhibitor-172, an inhibitor specific for CFTR, is used to test the specificity of the tested compounds. Raw data were normalized to percentage activity values using the equation: 100×(Sample−Negative control)/(Positive control−Negative Control).

T1 sequence (P13569 with tags, fused parts or gaps DEL508-508): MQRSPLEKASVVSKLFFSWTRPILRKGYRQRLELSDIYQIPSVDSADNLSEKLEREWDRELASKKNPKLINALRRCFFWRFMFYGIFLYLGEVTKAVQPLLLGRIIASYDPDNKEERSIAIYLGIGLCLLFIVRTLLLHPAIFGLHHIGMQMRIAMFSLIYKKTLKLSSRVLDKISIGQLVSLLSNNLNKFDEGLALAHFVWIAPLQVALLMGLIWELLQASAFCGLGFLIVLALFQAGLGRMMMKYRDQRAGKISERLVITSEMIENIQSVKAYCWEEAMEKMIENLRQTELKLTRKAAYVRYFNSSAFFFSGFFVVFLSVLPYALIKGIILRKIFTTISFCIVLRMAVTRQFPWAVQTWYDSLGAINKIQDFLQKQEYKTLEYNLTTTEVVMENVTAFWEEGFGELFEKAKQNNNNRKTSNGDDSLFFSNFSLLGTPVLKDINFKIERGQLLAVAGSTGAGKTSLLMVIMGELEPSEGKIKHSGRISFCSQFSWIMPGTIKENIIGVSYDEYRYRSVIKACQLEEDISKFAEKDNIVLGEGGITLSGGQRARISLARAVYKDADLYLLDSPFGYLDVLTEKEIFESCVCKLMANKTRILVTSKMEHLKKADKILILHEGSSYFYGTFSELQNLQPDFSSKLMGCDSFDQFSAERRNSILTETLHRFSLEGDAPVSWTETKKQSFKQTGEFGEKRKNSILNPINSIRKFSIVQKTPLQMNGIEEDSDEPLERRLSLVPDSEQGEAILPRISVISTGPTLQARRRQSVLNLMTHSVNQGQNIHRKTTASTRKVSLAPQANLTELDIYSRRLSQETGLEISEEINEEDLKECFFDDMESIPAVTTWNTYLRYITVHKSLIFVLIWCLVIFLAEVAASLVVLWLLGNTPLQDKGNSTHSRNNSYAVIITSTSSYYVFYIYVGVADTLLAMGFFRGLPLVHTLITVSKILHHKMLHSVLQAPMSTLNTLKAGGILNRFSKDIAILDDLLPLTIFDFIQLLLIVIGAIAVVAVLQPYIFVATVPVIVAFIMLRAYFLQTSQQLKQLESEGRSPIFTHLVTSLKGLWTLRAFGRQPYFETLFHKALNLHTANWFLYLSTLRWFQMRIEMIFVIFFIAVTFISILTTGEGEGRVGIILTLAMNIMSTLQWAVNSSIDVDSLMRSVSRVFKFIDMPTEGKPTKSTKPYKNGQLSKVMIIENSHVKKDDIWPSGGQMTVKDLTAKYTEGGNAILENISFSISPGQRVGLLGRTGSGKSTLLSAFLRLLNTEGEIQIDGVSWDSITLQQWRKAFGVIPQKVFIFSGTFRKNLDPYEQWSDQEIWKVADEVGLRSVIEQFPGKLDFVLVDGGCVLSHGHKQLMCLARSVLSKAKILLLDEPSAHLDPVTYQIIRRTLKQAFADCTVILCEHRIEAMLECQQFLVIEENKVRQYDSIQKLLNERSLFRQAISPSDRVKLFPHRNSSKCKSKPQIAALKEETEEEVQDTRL

CN1CCC2(CC1)CCN(c1cc(C(=O)O)nc3c1c(C1CCC1)nn3-c1ccccc1)CC2 [compound 699, 3-cyclobutyl-4-(9-methyl-3,9-diazaspiro[5.5]undecan-3-yl)-1-phenyl-1H-pyrazolo[3,4-b]pyridine-6-carboxylic acid]
EC50: 162 nM

O=C(O)c1cc(N2CCC(N3CCN(C4CC4)CC3)CC2)c2c(C3CCC3)nn(-c3ccccc3)c2n1 [compound 738, 3-cyclobutyl-4-[4-(4-cyclopropylpiperazin-1-yl)piperidin-1-yl]-1-phenyl-1H-pyrazolo[3,4-b]pyridine-6-carboxylic acid]
% Activity at 1 μM (AUC**): 230% | EC50: 23 nM

CC(C)c1nn(-c2ccc(F)cc2)c2nc(C(=O)O)cc(N3CCC(N4CCN(C5CC5)CC4)CC3)c12 [compound 754, 4-[4-(4-cyclopropylpiperazin-1-yl)piperidin-1-yl]-1-(4-fluorophenyl)-3-(propan-2-yl)-1H-pyrazolo[3,4-b]pyridine-6-carboxylic acid]
% Activity at 1 μM (AUC**): 190%

CC(C)c1nn(-c2ccc(F)cc2)c2nc(C(=O)O)cc(N3CCC(C(C)N4CCCC4)CC3)c12 (stereo not shown) [compound 789, 1-(4-fluorophenyl)-3-(propan-2-yl)-4-{4-[1-(pyrrolidin-1-yl)ethyl]piperidin-1-yl}-1H-pyrazolo[3,4-b]pyridine-6-carboxylic acid]
% Activity at 1 μM (AUC**): 235%

CC(C)c1nn(-c2ccc(F)cc2)c2nc(C(=O)O)cc(N3CCC(CN4CCCCC4)CC3)c12 [compound 790, 1-(4-fluorophenyl)-4-{4-[(piperidin-1-yl)methyl]piperidin-1-yl}-3-(propan-2-yl)-1H-pyrazolo[3,4-b]pyridine-6-carboxylic acid]
% Activity at 1 μM (AUC**): 220% | EC50: 120 nM

CO[C@@H]1CCN(CC2CCN(c3cc(C(=O)O)nc4c3c(C3CCC3)nn4-c3ccccc3)CC2)C1 [compound 803, 3-cyclobutyl-4-(4-{[(3R)-3-methoxypyrrolidin-1-yl]methyl}piperidin-1-yl)-1-phenyl-1H-pyrazolo[3,4-b]pyridine-6-carboxylic acid]
% Activity at 1 μM (AUC**): 161.4501%

COC[C@H]1CCN(CC2CCN(c3cc(C(=O)O)nc4c3c(C3CCC3)nn4-c3ccccc3)CC2)C1 [compound 804, 3-cyclobutyl-4-(4-{[(3S)-3-(methoxymethyl)pyrrolidin-1-yl]methyl}piperidin-1-yl)-1-phenyl-1H-pyrazolo[3,4-b]pyridine-6-carboxylic acid]
% Activity at 1 μM (AUC**): 290%

O=C(O)c1cc(N2CCC(CCN3CCOCC3)CC2)c2c(C3CCC3)nn(-c3ccc(F)cc3)c2n1 [compound 810, 3-cyclobutyl-1-(4-fluorophenyl)-4-{4-[2-(morpholin-4-yl)ethyl]piperidin-1-yl}-1H-pyrazolo[3,4-b]pyridine-6-carboxylic acid]
% Activity at 1 μM (AUC**): 191.4768%

O=C(O)c1cc(N2CCC(N3CCC(F)CC3)CC2)c2c(C3CCC3)nn(-c3ccc(F)cc3)c2n1 [compound 849, 3-cyclobutyl-4-(4-fluoro[1,4′-bipiperidin]-1′-yl)-1-(4-fluorophenyl)-1H-pyrazolo[3,4-b]pyridine-6-carboxylic acid]
% Activity at 1 μM (AUC**): 256.6667% | EC50: 15.6 nM

COCCN1CCN(c2ccc(-c3cc(C(=O)O)nc4c3c(C3CCC3)nn4C3CCCCC3)cn2)CC1 [compound 878, 3-cyclobutyl-1-cyclohexyl-4-{6-[4-(2-methoxyethyl)piperazin-1-yl]pyridin-3-yl}-1H-pyrazolo[3,4-b]pyridine-6-carboxylic acid]
% Activity at 1 μM (AUC**): 170%

O=C(O)c1cc(N2CCC(N3CCN(C4CC4)CC3)CC2)c2c(C3CCC3)nn(-c3ccc(F)cc3)c2n1 [compound 886, 3-cyclobutyl-4-[4-(4-cyclopropylpiperazin-1-yl)piperidin-1-yl]-1-(4-fluorophenyl)-1H-pyrazolo[3,4-b]pyridine-6-carboxylic acid]
% Activity at 1 μM (AUC**): 282.5409%

O=C(O)c1cc(N2CCC3(CC2)CCN(C2CC2)CC3)c2c(C3CCC3)nn(-c3ccc(F)cc3)c2n1 [compound 887, 3-cyclobutyl-4-(9-cyclopropyl-3,9-diazaspiro[5.5]undecan-3-yl)-1-(4-fluorophenyl)-1H-pyrazolo[3,4-b]pyridine-6-carboxylic acid]
% Activity at 1 μM (AUC**): 273.3871% | EC50: 1340 nM

CC(C)N1CCC2(CCN(c3cc(C(=O)O)nc4c3c(C3CCC3)nn4-c3ccc(F)cc3)CC2)CC1 [compound 890, 3-cyclobutyl-1-(4-fluorophenyl)-4-[9-(propan-2-yl)-3,9-diazaspiro[5.5]undecan-3-yl]-1H-pyrazolo[3,4-b]pyridine-6-carboxylic acid]
% Activity at 1 μM (AUC**): 366.6667%

COC1CCN(C2CCN(c3cc(C(=O)O)nc4c3c(C3CCC3)nn4-c3ccc(F)cc3)CC2)CC1 [compound 892, 3-cyclobutyl-1-(4-fluorophenyl)-4-(4-methoxy[1,4′-bipiperidin]-1′-yl)-1H-pyrazolo[3,4-b]pyridine-6-carboxylic acid]
% Activity at 1 μM (AUC**): 188.3291% | EC50: 900 nM

O=C(O)c1cc(N2CCC3(CC2)CCN(C2CCC2)CC3)c2c(C3CCC3)nn(-c3ccc(F)cc3)c2n1 [compound 894, 3-cyclobutyl-4-(9-cyclobutyl-3,9-diazaspiro[5.5]undecan-3-yl)-1-(4-fluorophenyl)-1H-pyrazolo[3,4-b]pyridine-6-carboxylic acid]
% Activity at 1 μM (AUC**): 300%

COCCN1CCC2(CC1)CCN(c1cc(C(=O)O)nc3c1c(C1CCC1)nn3-c1ccc(F)cc1)CC2 [compound 897, 3-cyclobutyl-1-(4-fluorophenyl)-4-[9-(2-methoxyethyl)-3,9-diazaspiro[5.5]undecan-3-yl]-1H-pyrazolo[3,4-b]pyridine-6-carboxylic acid]
% Activity at 1 μM (AUC**): 375%

O=C(O)c1cc(N2CCC(N3CCC(O)CC3)CC2)c2c(C3CCC3)nn(-c3ccc(F)cc3)c2n1 [compound 898, 3-cyclobutyl-1-(4-fluorophenyl)-4-(4-hydroxy[1,4′-bipiperidin]-1′-yl)-1H-pyrazolo[3,4-b]pyridine-6-carboxylic acid]
% Activity at 3 μM (AUC): 150.7853% | EC50: 2640 nM

O=C(O)c1cc(N2CCC(N3CCOCC3)CC2)c2c(C3CCC3)nn(-c3cccc(OC(F)F)c3)c2n1 [compound 910, 3-cyclobutyl-1-[3-(difluoromethoxy)phenyl]-4-[4-(morpholin-4-yl)piperidin-1-yl]-1H-pyrazolo[3,4-b]pyridine-6-carboxylic acid]
% Activity at 3 μM (AUC): 531.5026%

CC(F)(F)c1cccc(-n2nc(C3CCC3)c3c(N4CCC(N5CCOCC5)CC4)cc(C(=O)O)nc32)c1 [compound 915]
% Activity at 3 μM (AUC): 423.3333%

CC(C)Oc1cccc(-n2nc(C3CCC3)c3c(N4CCC(N5CCOCC5)CC4)cc(C(=O)O)nc32)n1 [compound 924, 3-cyclobutyl-4-[4-(morpholin-4-yl)piperidin-1-yl]-1-{6-[(propan-2-yl)oxy]pyridin-2-yl}-1H-pyrazolo[3,4-b]pyridine-6-carboxylic acid]
% Activity at 3 μM (AUC): 235.9027% | EC50: 10.6 nM

CC(C)Oc1nn(C2CCCCC2)c2nc(C(=O)O)cc(-c3ccc(CN4CC(N(C)C)C4)cc3)c12 [compound 927, 1-cyclohexyl-4-(4-{[3-(dimethylamino)azetidin-1-yl]methyl}phenyl)-3-[(propan-2-yl)oxy]-1H-pyrazolo[3,4-b]pyridine-6-carboxylic acid]
EC50: 1940 nM
